Results on 2 compounds are retold here after publication PMC6800809 (ChemMedChem, 2019).

Converted amounts (≈) assume the structure as drawn.

One data set relates to HepG2 cells. Description: HepG2 cytotoxicity.
The subject of a further data set is MbtA. Conditions: 44.2 μM MbtA, ligand 0.75 mM.
A further data set is described as follows: HepG2 cytotoxicity. The note with it: human, HepG2 cells.
The test system of a further data set is M. tuberculosis H37Rv. Description: MIC determination against M. tuberculosis H37Rv in liquid medium. The data set is classed as cell-based. Conditions: Mycobacterium tuberculosis, 120 h, read-out: H37Rv MIC90.

Compound `O=[N+]([O-])c1cc(C(F)(F)F)ccc1NCCc1c[nH]c2ccc(O)cc12` [Compound 5, 5-hydroxy-indol-3-ethylamino-(2-nitro-4-trifluoromethyl)benzene] displayed an IC50 in the data set with RAW 264.7 cells of 29 µM. Besides, the “HepG2 cytotoxicity, IC50 towards cells grown in both media” value in the data set with HepG2 cells (glucose and galactose media) is reported as “relatively low cytotoxicity”. In the data set on HepG2 cells (ratio of HepG2 IC50 in glucose to galactose medium (mitochondrial toxicity)), the “Ratio (Glu/Gal)” value is 1.2. Besides, the “Response in STD and Water-LOGSY experiments” value in the data set on MbtA is recorded as “positive responses”.
Take `CO[C@H]1/C=C/O[C@@]2(C)Oc3c(C)c(O)c4c(O)c(c(/C=N/N5CCN(C)CC5)c(O)c4c3C2=O)NC(=O)/C(C)=C\C=C\[C@H](C)[C@H](O)[C@@H](C)[C@@H](O)[C@@H](C)[C@H](OC(C)=O)[C@@H]1C` [Rifampicin, reference compound]: the IC50 at 2 days in “HepG2 cytotoxicity” was more than 100 µM. Moreover, the MIC90 in the data set with M. tuberculosis H37Rv amounted to 0.1 µM (≈ 0.0823 µg/mL).
